Assay results: article PMC10095686, “Evaluation of the Anticancer Activity and Mechanism Studies of Glycyrrhetic Acid Derivatives toward HeLa Cells” (Molecules, 2023)

Tests used:
Type in all cases: cell-based
[1] = test system: HeLa cells; test: DAPI staining of apoptotic morphology; conditions: HeLa, 10, 20 and 30 μM, 24 h
Method: 4′,6-diamidino-2′-phenylindole (DAPI) can enter cells through the cell membrane and dye the nucleus blue, which is used to detect the changes in the cell nuclear morphology. Normal nuclei are round and the chromatin is uniform, while the nuclei of apoptotic cells shrink and the cell outline is not clear. HeLa cells were treated with compound 3a for 24 h and fixed with paraformaldehyde for 15 min. The cells were stained with DAPI solution for half an hour and washed three times with PBS. Then the cells were photographed under ImageX-press R Micro XLS System (MD company, San Jose, CA, USA).

[2] = test system: HeLa cells; test: Cell cycle arrest assay (PI, flow cytometry); conditions: 24 h
Method: HeLa cells (5.5 × 10^5) were spread in 6-well plates overnight; the cells were treated with different concentration of compound 3a for 24 h. The cells were then washed twice with PBS and digested with trypsin. The supernatant was removed via centrifugation and fixed overnight in 70% ethanol. The cells were washed twice with PBS and resuspended in a 190 μL staining buffer containing 4 μL of 1 mg/mL PI (propidium iodide), 4 μL of 10 mg/mL RNaseA (ribonuclease), and 0.2 μL Tritonx-100. After staining for 20 min in the dark, the cell cycle distribution was detected using flow cytometry (Beckman Dickinson & Co., Franklin Lakes, NJ, USA).

[3] = test system: HeLa cells; test: Intracellular ROS (DCFH-DA); conditions: 24 h
Method: HeLa cells (5.5 × 10^5) were spread in 12-well plates and incubated at 37 °C in 5% CO2 overnight. After treatment of HeLa with different concentrations of compound 3a for 24 h, the culture medium in the wells was removed and the cells were washed twice with PBS. The cells were then stained with 20 μM 2′,7′-dichlorodihydrofluorescein diacetate (DCFH-DA) in the dark for 30 min. Finally, the cells were observed under the ImageXpress Mico XLS system (MD company, San Jose, CA, USA) and the intracellular reactive oxygen species content was determined under flow cytometry (Beckman Dickinson & Co., Franklin Lakes, NJ, USA).

Structure (SMILES): CC1(C)[C@@H](O)CC[C@]2(C)[C@H]3C(=O)C=C4[C@@H]5C[C@@](C)(C(=O)Oc6ccc(Br)cc6)CC[C@]5(C)CC[C@@]4(C)[C@]3(C)CC[C@@H]12 [Compound 3a, 4-Bromophenyl 3β-hydroxy-11-oxo-olean-12-en-30-oate]
- cell morphology after DAPI staining [1]: nuclear shrinkage and chromatin condensation
- increase of cell proportion in S phase compared with control ([2]; 10 μM): 4.56%
- increase of cell proportion in S phase compared with control ([2]; 20 μM): 9.65%
- increase of cell proportion in S phase compared with control ([2]; 30 μM): 20.81%
- increase in DCF fluorescence intensity compared with control ([3]; 10 μM): not obvious
- increase in DCF fluorescence intensity compared with control ([3]; 20 μM): 1.4 fold
- increase in DCF fluorescence intensity compared with control ([3]; 30 μM): 1.8 fold
